Data taken from publication PMC3481155, “AhR activation underlies the CYP1A autoinduction by A-998679 in rats” (Frontiers in Genetics, 2012).

Legend:
[1] = test system: CYP1A2; experiment: CYP1A2 mRNA induction in primary human hepatocytes; assay type: cell-based; settings: 24 h, dose-dependent
Protocol: Rat hepatocytes were isolated in a perfusion procedure as described previously (Elliget and Kolaja, [1983]; Waring et al., [2001]). The beagle dog hepatocytes were isolated in the same manner, except for adjustment of flow rate and buffer volume to scale to liver size. Cells were plated at a seeding density of 1.0 × 10^6 cells per well on 6-well, collagen-type I coated plates (BD Biosciences, Bedford, MA) in hepatocyte plating medium (Celsis, Baltimore, MD). Cells were allowed to attach for 24 h in a 37°C humidified incubator with a 5% CO2 atmosphere and were dosed for 24 h (rat) or 48 h (dog) with vehicle control [0.1% DMSO (v/v)] or 10 μM A-998679 in fresh treatment media (Celsis hepatocyte incubation media) every 24 h. After the last incubation, cells were lysed in 1 ml of Qiazol (Qiagen) and stored at −80°C until RNA isolation. Cryopreserved human hepatocytes (donor designation Hu4198; Invitrogen Life Technologies, Carlsbad, CA) were thawed and plated according to the manufacturer's protocol and allowed to incubate for 24 h. […]
RNA samples were diluted with RNase-free molecular biology grade water to a concentration of 20 ng/μl total RNA. […] Results were analyzed by calculating the fold change of CYP1A1 and/or CYP1A2 mRNA levels normalized to 28S rRNA (ΔΔ Ct) in compound treated cells or tissues compared to vehicle levels. […]

[2] = test system: CYP1A2; experiment: CYP inhibition evaluation in human liver microsomes, CYP1A2 (phenacetin); assay type: in vitro ADME; settings: pH 7.4, probe substrate phenacetin
Protocol: Incubations were performed in human liver microsomes using probe substrate concentrations similar to their corresponding Km values. Enzyme activity was evaluated in the presence of various concentrations of A-998679. The incubations consisted of the test article at varying concentrations (0–30 μM), probe substrate (concentration ~Km, see Table A2), human liver microsomal protein and 1 mM NADPH in 50 mM phosphate buffer at pH 7.4. Relative quantitation of the metabolites was obtained by LC-MS/MS using an ABSciex (Foster City, CA) API3000 or API4000 Qtrap hybrid linear ion trap mass spectrometer equipped with a TurboIonspray source using either PerkinElmer series 200 pumps or Agilent 1100 series pump with a Leap autosampler. Analytes were separated using a Phenomenex Prodigy ODS(3) 5 μm, 50 × 2.0 mm column at 50°C, eluted and detected under the specific conditions listed in Tables A3, A4, and A5. The analyte to internal standard peak area ratios were determined using Analyst 1.4 software (Applied Biosytems, Carlsbad, CA). The peak area ratios observed in the presence of test article were compared to the vehicle control in order to determine percent activity. To determine the IC50, the data were plotted as Log [dose] μM vs. % inhibition, and analyzed with a sigmoidal dose-response (variable slope) fitting equation. […]

[3] = 5-day oral rat study, pharmacokinetic analysis of plasma exposure; assay type: in vivo
Protocol: All animal experiments were conducted in accordance with the Guiding Principles in the Use of Animals in Toxicology (http://www.toxicology.org/ai/air/air6.asp) and were approved by Abbott's Institutional Animal Care and Use Committee (IACUC). Male Sprague-Dawley rats [Crl:CD®(SD)IGS BR], weighing ~250 g at study initiation were obtained from Charles River Laboratories, Inc. (Wilmington, MA). Rats were housed singly in ventilated, stainless steel, wire-bottom hanging cages and fed non-certified Rodent Chow (Harlan Labs, Madison, WI), and water ad libitum and acclimated for at least 5 days after arrival. Rats were randomly assigned to various treatment groups (3 rats/group) and were dosed once daily by oral gavage with vehicle (0.2% hydroxypropylmethylcellulose at a dose volume of 10 ml/kg) or with 30, 100, or 200 mg/kg of A-998679. All rats were fasted overnight after their last dose, weighed and sacrificed under isoflurane anesthesia. For histopathological evaluation, liver, heart, kidney, spleen, bone (sternum) with marrow, gastrointestinal tract (duodenum with pancreas, jejunum, ileum, cecum, and colon), thymus, and lung were fixed in formalin, routinely processed, and embedded in paraffin. Paraffin sections (4 μm) were stained with hematoxylin and eosin. Liver and small intestine (jejunum) were also flash frozen in liquid nitrogen and stored at −80°C until processing for gene expression profiling. Serum clinical chemistry parameters were quantified using an Aeroset Clinical Chemistry Analyzer (Abbott Laboratories, Abbott Park, IL) and included alanine amino transferase (ALT), aspartate amino transferase (AST), gamma glutamyltransferase (GGT), and alkaline phosphatase (ALP) activities.
Serial blood samples were obtained from a tail vein of each rat 0.5, 1.5, 3, 6, 9, 12, and 24 h after drug administration on the first and last day of dosing. Plasma was separated by centrifugation and stored frozen prior to analysis. A-998679 was separated from the plasma using protein precipitation with acetonitrile. A-998679 and the internal standard were separated from co-extracted contaminants on a 50 × 3 mm Betasil CN column (Thermosystem) with an acetonitrile: 10 mM ammonium acetate mobile phase (35:65, by volume) at a flow rate of 0.4 ml/min at ambient temperature. Concentrations of A-998679 in the plasma extracts were determined by HPLC-MS/MS (API2000; Applied Biosystems). Peak plasma concentrations (Cmax) and the time to peak plasma concentration (Tmax) were read directly from the plasma concentration data for each rat. A-998679 plasma concentration data were submitted to multi-exponential curve fitting using WinNonlin. The area under the plasma concentration-time curve from 0 to t hours (time of the last measurable plasma concentration) after dosing (AUC0-t) was calculated using the linear trapezoidal rule for the plasma concentration-time profiles. The residual area extrapolated to infinity, determined as the final measured plasma concentration (Ct) divided by the terminal elimination rate constant (β), was added to AUC0-t to produce the total area under the curve (AUC0-∞).

[4] = 30 and 100 mg/kg/day, data not shown

N#Cc1cccc(-c2noc(-c3cccnc3)n2)c1 [A-998679, 3-(5-pyridin-3-yl-1,2,4-oxadiazol-3-yl) benzonitrile]
lowest concentration inducing CYP1A2 mRNA [1]: 3 µM
IC50 [2]: 460 nM
decline in Cmax after 5 days of dosing compared to the first day ([3]; 30 mg/kg/day, day 5 vs day 1): 88%
decrease in plasma AUC after 5 days of dosing ([3]; 30 mg/kg/day, day 5 vs day 1): 95%
decline in Cmax after 5 days of dosing compared to the first day ([3]; 100 mg/kg/day, day 5 vs day 1): 53%
decrease in plasma AUC after 5 days of dosing ([3]; 100 mg/kg/day, day 5 vs day 1): 80%
change in AUC after 5 days of dosing ([3]; 200 mg/kg/day, day 5 vs day 1): no change
change in Cmax after 5 days of dosing ([3]; 200 mg/kg/day, day 5 vs day 1): no change
change in Tmax after 5 days of dosing [3, 4]: decrease
change in t1/2 after 5 days of dosing [3, 4]: decrease
Cmax ([3]; male, Sprague-Dawley, plasma, 30 mg/kg): ~5 µM
